In patent publication US10787651B2, “Bradyrhizobium monooxygenase and use thereof for preparation of chiral sulfoxide” (JIANGSU AOSAIKANG PHARMACEUTICAL CO., LTD., priority 2018, dated 2020):

What was measured:
[1] = tested on: Bradyrhizobium oligotrophicum ECU1212 resting cells; assay: Asymmetric oxidation of thioethers by whole resting cells; format: cell-based; details: substrate 0.1 g/L, catalyst loading 10 g/L, 30° C., 180 rpm
Procedure: Optionally, resting cells harvested from the culture of Bradyrhizobium oligotrophicum ECU1212 are used to asymmetrically catalyze the oxidation of lansoprazole thioether to prepared (R)-lansoprazole under the conditions that the thioether substrate concentration is 0.1 g/L, the catalyst loading is 10 g/L, and the reaction is carried out at 30° C. under stirring at 180 rpm. The conversion rate of lansoprazole thioether can be up to 80%, and the optical purity can be up to 99% ee(R). it can be seen that the Bradyrhizobium oligotrophicum ECU1212 comprises functional enzyme(s) which serve to asymmetrically catalyze the oxidation and have a high catalytic conversion rate. Thus, it can solve the problem that the conventional bio-catalysts have low conversion rate in the asymmetric catalytic oxidation process. […]
To 100 ml Tris-HCl buffer (100 mmol/L, pH 9.0) was added 1 g of Bradyrhizobium oligotrophicum ECU1212 lyophilized cells (lyophilized cells prepared in accordance with Example 2), and thioanisole and methanol were added to a final concentration of 37 g/L, 10% (v/v). […] Then, the residue was dissolved in 0.5 ml isopropanol, and the solution was analyzed in accordance with the method of Example 7 for the conversion of reaction and the ee value of product. […]

Recombinant BoTEMO = assay: Asymmetric oxidation of thioethers by recombinant BoTEMO crude enzyme with glucose dehydrogenase recycling; format: biochemical, Bradyrhizobium oligotrophicum ECU1212; details: 0.2 g crude enzyme powders in 10 ml, 2 g/L substrate, 25° C., 24 h
Procedure: The analysis is carried out with a high performance liquid chromatograph (HPLC) under the conditions of: a chiral OD-H column ([…], 5 μm particle size, Daicel), a mobile phase of n-hexane:isopropanol=93:7, a flow rate of 1 ml/min, and UV detection at 254 nm; or an AS-H column (250 mm×4.6 mm, 5 μm particle size, Daicel), a mobile phase of n-hexane:isopropanol=55:45, a flow rate of 0.5 mL/min, and UV detection at 254 nm.
To 0.5 ml potassium phosphate buffer (100 mmol/L, pH 9.0) was added 100 μL of crude enzyme solution of BoTEMO (the crude enzyme solution in accordance with the method of Example 5) and a crude enzyme solution of glucose dehydrogenase, and thioanisole, methanol, NADP^+ and glucose were added to the final concentration of 2 mmol/L, 10% (v/v), 0.2 mmol/L and 3.6 g/L, respectively. At 25° C. and 1000 rpm, the mixture was shaken for 1 h. After completion of reaction, 0.6 ml of ethyl acetate was added for extraction. The extract was dried over anhydrous sodium sulfate, and evaporated to remove the solvent. Then, the residue was dissolved in 0.5 ml of isopropanol. The mixture was analyzed in accordance with the method of Example 7 for measure the conversion of reaction and the ee value of product. The conversion of reaction was above 99%, and the ee value of product was above 99% (S).
To 0.5 ml of potassium phosphate buffer (100 mmol/L, pH 9.0) was added 100 μL crude enzyme solution of BoTEMO (the crude enzyme solution prepared in accordance with the method of Example 5) and a crude enzyme solution of glucose dehydrogenase, and omeprazole thioether, methanol, NADP^+ and glucose were added to the final concentrations of 0.2 mmol/L, 10% (v/v), 0.2 mmol/L and 3.6 g/L, respectively. At 25° C. and 1000 rpm, the mixture was shaken for 1 h. After completion of reaction, 0.6 ml of ethyl acetate was added for extraction. […] Then, the residue was dissolved in 0.5 ml isopropanol, and the solution was analyzed in accordance with the method of Example 7 for measuring the conversion of reaction and the ee value of product. […]
To 10 ml of potassium phosphate buffer (100 mmol/L, pH 9.0) was added 0.1 g of lyophilized crude enzyme powders of BoTEMO (crude enzyme powders prepared in accordance with the method of Example 5) and 0.02 g of lyophilized crude enzyme powder of glucose dehydrogenase (15 U/mg), and 1-3 g/L of omeprazole thioether/lansoprazole thioether/pantoprazole thioether/rabeprazle thioether/ilaprazole thioether, 10% (v/v) of methanol, 0.2 mmol/L of NADP^+ and 10 g/L of glucose were added. […] Then, the residue was dissolved in 0.5 ml of isopropanol, and the solution was analyzed in accordance with the method of Example 7 for measuring the conversion of reaction and the ee value of product. […]

BoTEMO-M1 = assay: Asymmetric oxidation of lansoprazole thioether by BoTEMO-M1; format: biochemical, Bradyrhizobium oligotrophicum ECU1212; details: 10 g/L substrate, 25° C., 24 h
Procedure: (§1) To 100 ml Tris-HCl buffer (100 mmol/L, pH 9.0) was added 1 g of lyophilized crude enzyme powders of BoTEMO-M1 and 0.2 g crude enzyme of glucose dehydrogenase. Lansoprazole thioether, methanol, NADP^+ and glucose were added to the final concentrations of 10 g/L, 10% (v/v), 0.2 mmol/L and 15 g/L, respectively. The reaction was stirred at 25° C. and 180 rpm for 24 h. When the lansoprazole thioether was asymmetrically catalytically oxidized to (R)-lansoprazole, the resultant conversion of the reaction was above 99%, and the ee value of product was above 99% (R).
as §1, with “To 2 L” for “To 100 ml”, “added 20” for “added 1”, “g” for “g of”, “and 4” for “and 0.2”, “of” for “of the”, “(R). Separation by extraction gave […] of the product (R)-lansoprazole, and the yield was 86%.” for “(R).”

BoTEMO-M2 = assay: Asymmetric oxidation of lansoprazole thioether by BoTEMO-M2; format: biochemical, Bradyrhizobium oligotrophicum ECU1212; details: BoTEMO-M2 powders in 100 ml, 3 g/L substrate, 25° C., 24 h
Procedure: as §1, with “added” for “added 1 g of”, “of BoTEMO-M2” for “of BoTEMO-M1”, “of 3” for “of 10”, “and 5.4” for “and 15”

[2] = tested on: engineered cyclohexanone monooxygenase (CHMO); details: substrate loading 1.5 g/L, after 17 h; cited from earlier work

For `Cc1c(OCC(F)(F)F)ccnc1CSc1nc2ccccc2[nH]1` [lansoprazole thioether], the conversion rate [1] was “up to 80%”, the conversion of reaction (Recombinant BoTEMO) was “above 99%” and the “conversion of the reaction” value (BoTEMO-M1; 1 g BoTEMO-M1 powders in 100 ml) was “above 99%”. The conversion of reaction (BoTEMO-M1; 20 g BoTEMO-M1 powders in 2 L) was “above 99%”, the “conversion of the reaction” value (BoTEMO-M2) was “above 99%” and the conversion [2] was 1.2%.
